In US7618997B2, “Diaminofluorescein derivatives” (Sekisui Medical Co., Ltd., priority 2000, dated 2009):
Like-named read-outs stand apart in the source and are kept apart here.

Columns and labels:
[1] = Photostability under direct sunlight irradiation; assay type: physicochemical; conditions: 1 μM in 0.1 M sodium phosphate buffer pH 7.4, direct sunlight; versus DAF-1T, DAF-2T, DAF-4T, DAF-5T
Procedure: Photostability of the triazole derivatives produced by the method disclosed in U.S. Pat. No. 5,874,590 (DAF-1T, DAF-2T, DAF-4T and DAF-5T, the structures thereof are shown below) and DAF-FM T was tested by direct irradiation with sunlight. The dyes were each dissolved in 0.1 M sodium phosphate buffer (pH 7.4) at a concentration of 1 μM, and the solution was put into vials and exposed to direct sunlight under fine weather for a certain period of time. Samples were collected from the solutions, and fluorescence intensity was measured and compared with respective initial values.

[2] = pH characteristics of triazole derivatives (fluorescence intensity vs pH); assay type: physicochemical; conditions: 1 μM in sodium phosphate buffers; for pKa: sodium phosphate buffers of various pH, from fluorescence intensity vs pH
Procedure: Triazole derivatives prepared by the method disclosed in U.S. Pat. No. 5,874,590 (DAF-2T and DAF-5T, the structures thereof are shown below) and DAF-FM T were dissolved at 1 μM in sodium phosphate buffers adjusted to each of the pH values, and fluorescence intensity was measured. The excitation wavelength and fluorescence wavelength were 495-515 (nm) for DAF-2T, 505-520 (nm) for DAF-5T and 495-515 (nm) for DAF-FMT, respectively. […] As for DAF-FM T, a dissociable proton was not present in the triazole ring, and therefore the compound was not influenced by pKa and it gave a constant fluorescence intensity at pH 5.8 or higher.

[3] = test system: Bovine aorta endothelial cells; assay: Measurement of extracellularly produced nitrogen monoxide; assay type: cell-based; conditions: 7 μM in PBS(+), 37° C., Ex 500 nm, Em 515 nm, stimulation with A23187, control with inhibitor of nitrogen monoxide synthetase
Procedure: Bovine aorta endothelial cells were cultured, and the cells were removed with trypsin and collected by centrifugation, and then suspended in 2 ml of PBS(+) in which DAF-FM (7 μM) was dissolved. These cells were transferred to a cell for fluorescence measurement, and fluorescence intensity was measured (Ex.: 500 nm, Em.: 515 nm) at 37° C. with stirring. The cells were stimulated with a calcium ionophore A23187 during the measurement so that the cells generated nitrogen monoxide. As control experiments, an inhibitor of nitrogen monoxide synthetase was added after the above measurement, or alternatively, the measurement was performed in the presence of the inhibitor from the beginning.

[4] = read-out: pKa of the hydroxyl group
[5] = read-out: pKa of the proton of the triazole ring

Structure (SMILES) | photostability (fluorescence intensity compared with initial value) [1] | pH at which fluorescence intensity is constant ([2]; Ex/Em 495-515 nm) | pKa [2, 4] | fluorescence intensity increase on nitrogen monoxide generation by the cells [3] | pKa [2, 5]
Cn1nnc2c3c(ccc21)C1(OC3=O)c2cc(F)c(O)cc2Oc2cc(O)c(F)cc21 [DAF-FM T, 2″,7″-Difluoro-3″,6″-dihydroxy-spiro[1′-methyltriazolo[4′,5′:4,5]isobenzofuran-1(3H),9″-[9H]xanthen]-3-one] | higher photostability than the other triazole compounds | ≥ 5.8 | 4.38 | – | –
CNc1ccc2c(c1N)C(=O)OC21c2cc(F)c(O)cc2Oc2cc(O)c(F)cc21 [DAF-FM, 4-Amino-5-(N-methylamino)-2′,7′-difluoro-3′,6′-dihydroxy-spiro[isobenzofuran-1(3H),9′-[9H]xanthen]-3-one] | – | – | – | increase of fluorescence intensity was caused by nitrogen monoxide | –
O=C1OC2(c3ccc(O)cc3Oc3cc(O)ccc32)c2cc3nn[nH]c3cc21 [DAF-2T] | – | – | 6.27 | – | 7.94
O=C1OC2(c3cc(Cl)c(O)cc3Oc3cc(O)c(Cl)cc32)c2cc3nn[nH]c3cc21 [DAF-5T] | – | – | 4.59 | – | 7.41
